Measurements: patent publication US9518033B2, “(4E)-4-(4-substituted benzylideneamino)-2,3-dihydro-3-substituted-2-thioxothiazole-5-carbonitriles as A2AR antagonist and process for preparation thereof” (COUNCIL OF SCIENTIFIC & INDUSTRIAL RESEARCH, priority 2013, dated 2016)
“And” between values parts separate entries of the source, which are not always exact repeats. Equal entries are not always repeated.

Tests used:
human A2AR = biological target: T1, human A2AR (Homo sapiens, UniProt P29274); experiment: Radioligand competitive binding assay, [3H] ZM 241385 displacement; conditions: for Ki: membranes of transfected HEK 293T cells, 1 nM [3H] ZM 241385, read-out: Ki A2A; for A1/A2A (selectivity): ratio Ki A1 / Ki A2A; for binding affinity and selectivity (in words): A2AR over A1R
T1 construct: expressed in transfected cells; host or cells: HEK 293T
T1 sequence (P29274 whole entry): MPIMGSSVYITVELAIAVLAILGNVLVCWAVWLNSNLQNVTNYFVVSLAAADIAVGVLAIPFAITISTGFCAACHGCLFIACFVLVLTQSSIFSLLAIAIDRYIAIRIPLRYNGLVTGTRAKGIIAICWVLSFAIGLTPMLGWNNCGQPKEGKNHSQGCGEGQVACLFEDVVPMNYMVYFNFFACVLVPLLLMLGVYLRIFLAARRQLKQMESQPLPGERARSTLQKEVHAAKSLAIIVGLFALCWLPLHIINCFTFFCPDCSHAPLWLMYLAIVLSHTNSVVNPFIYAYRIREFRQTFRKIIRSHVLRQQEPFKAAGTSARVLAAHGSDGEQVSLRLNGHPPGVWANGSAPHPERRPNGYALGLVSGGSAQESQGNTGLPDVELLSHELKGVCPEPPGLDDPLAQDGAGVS
Description: Cells were washed twice with ice-cold PBS (pH 7.4). Pellet of washed cells was resuspended in hypotonic lysis buffer (10 mM NaCl, 2 mM MgCl2, 1 mM DTT, 10 mM Hepes, 2 mM PMSF, pH 7.4) and sonicated (4 cycles of 10 s duration each). Homogenate were centrifuged at 2,500 rpm for 10 minutes at 4° C. Resulting supernatants was again centrifuged at 38,000 rpm for 30 minutes at 4° C. Pellets obtained were resuspended in Tris-HCl (pH 7.4) buffer. […] Aliquots of membrane proteins from both A2AR and A1R were rapidly frozen and stored at −20° C. Radioligand [^3H] […] DPCPX were purchased from American Radiolabeled Chemicals, St. Louis, USA.
About 10 μg of membrane protein was added to each well of a 96-well filter plate. Incubation buffer containing adenosine deaminase (2.5 U/ml) was added to the membrane protein and incubated at 37° C. for 1 h, to remove endogenous adenosine. Varying concentrations (1 pM to 1 μM) of test compounds of general formula A was added in duplicate and volume was adjusted to 50 μl by adding incubation buffer. […] Filter plates were incubated at 26° C. for 30 minutes and reaction was terminated by rapid filtration of unbound radioligands. Filters containing ligand bound receptors were washed three times with ice-cold washing buffer to completely remove any unbound radioligand or receptor. Finally, 100 μl of scintillation fluid was added to each well and incubated overnight at room temperature. β-counts emitted from bound radioligands ([^3H] ZM241385 and [^3H] DPCPX) were counted using β-counter. Duplicate values of β-counts per minute at corresponding concentrations (1 pM to 1 μM) were added to the data sheet of graph pad prism 4.0. Concentration values were considered as X-values and counts per minute were considered as Y-values (in duplicate). X-values were transformed into log X and Ki value was calculated using nonlinear regression (curve fit program).

human A1R = biological target: T2, human A1R (Homo sapiens, UniProt P30542); experiment: Radioligand competitive binding assay, [3H] DPCPX displacement; conditions: membranes of transfected HEK 293T cells, 1 nM [3H] DPCPX; read-out: Ki A1
T2 construct: expressed in transfected cells; host or cells: HEK 293T
T2 sequence (P30542 1-326): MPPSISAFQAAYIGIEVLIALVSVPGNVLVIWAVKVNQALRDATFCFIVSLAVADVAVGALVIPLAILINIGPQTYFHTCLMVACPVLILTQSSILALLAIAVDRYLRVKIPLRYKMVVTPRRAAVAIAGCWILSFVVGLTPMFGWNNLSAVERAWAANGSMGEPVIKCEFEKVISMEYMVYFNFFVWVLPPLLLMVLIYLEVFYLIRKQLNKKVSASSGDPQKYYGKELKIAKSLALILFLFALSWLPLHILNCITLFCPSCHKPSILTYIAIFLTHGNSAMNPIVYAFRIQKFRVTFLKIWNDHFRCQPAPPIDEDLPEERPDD
Description: About 1×10^6 cells per ml of transfected HEK 293T cells with human A2AR and A1R were centrifuged at 2,500 rpm for 2 minutes in 15 ml centrifuge tubes. Cells were washed twice with ice-cold PBS (pH 7.4). Pellet of washed cells was resuspended in hypotonic lysis buffer (10 mM NaCl, 2 mM MgCl2, 1 mM DTT, 10 mM Hepes, 2 mM PMSF, pH 7.4) and sonicated (4 cycles of 10 s duration each). Homogenate were centrifuged at 2,500 rpm for 10 minutes at 4° C. Resulting supernatants was again centrifuged at 38,000 rpm for 30 minutes at 4° C. Pellets obtained were resuspended in Tris-HCl (pH 7.4) buffer. Membrane protein concentrations were determined using Lowry method (Lowry et al., 1951). Aliquots of membrane proteins from both A2AR and A1R were rapidly frozen and stored at −20° C. Radioligand [^3H] ZM 241385 and [^3H] DPCPX were purchased from American Radiolabeled Chemicals, St. Louis, USA.
About 10 μg of membrane protein was added to each well of a 96-well filter plate. Incubation buffer containing adenosine deaminase (2.5 U/ml) was added to the membrane protein and incubated at 37° C. for 1 h, to remove endogenous adenosine. Varying concentrations (1 pM to 1 μM) of test compounds of general formula A was added in duplicate and volume was adjusted to 50 μl by adding incubation buffer. Further, constant concentration of radioligands (1 nM for [^3H] ZM 241385 and 1 nM of [^3H] DPCPX) was added to respective wells and final volume was adjusted to 200 μl by adding the incubation buffer. Filter plates were incubated at 26° C. for 30 minutes and reaction was terminated by rapid filtration of unbound radioligands. Filters containing ligand bound receptors were washed three times with ice-cold washing buffer to completely remove any unbound radioligand or receptor. Finally, 100 μl of scintillation fluid was added to each well and incubated overnight at room temperature. β-counts emitted from bound radioligands ([^3H] ZM241385 and [^3H] DPCPX) were counted using β-counter. Duplicate values of β-counts per minute at corresponding concentrations (1 pM to 1 μM) were added to the data sheet of graph pad prism 4.0. Concentration values were considered as X-values and counts per minute were considered as Y-values (in duplicate). X-values were transformed into log X and Ki value was calculated using nonlinear regression (curve fit program). The calculated Ki values for A2AR and A1R are given bellow (table 1).

[1] = system: haloperidol induced catalepsy; experiment: Haloperidol induced catalepsy in mice; type: in vivo, Swiss Albino male mice; conditions: for catalepsy score: haloperidol 2.5 mg/kg, after 120 min
Description: Adult Swiss Albino male mice (4-6 weeks, 20-30 g) were pro-cured from National Institute of Communicable Diseases, Delhi, India and were kept under controlled conditions of temperature (22±1° C.), humidity (60±5%), and illumination (12 h light; 12 h darkness) at the animal house, Dr. B. R. Ambedkar Centre for Bio-medical Research, University of Delhi, Delhi, India. The experimental protocol met the National Guidelines on the ‘Proper Care and Use of Animals in Laboratory Research’ (Indian National Science Academy, New Delhi) and was approved by the Animal Ethics Committee of the department. The procedures adhered to the NIH Guidelines for the Care and Use of Laboratory Animals.
Double distilled filtered and deionized water (Milli-Q-system Waters, Milford, Mass.) was used through out the study. […] Mice were divided into seven groups of four mice each. […] Saline and 1% acacia in saline were injected to two control groups.
The inability of an animal to correct an externally imposed posture (Catalepsy score) was measured at different time intervals with both limbs on a square wooden block (3 cm high) by placing the animals on a flat horizontal surface. The length of time that animals held the bar without any voluntary movement was recorded, with a cutoff time of 3 min. Catalepsy score of each mice in a group was taken to compute the mean value of the group.

human A2A receptors = biological target: T3, human A2A receptors (Homo sapiens, UniProt P29274); experiment: cAMP functional assay in NECA stimulated HEK293T cells; type: cell-based
T3 construct: expressed in transfected cells; host or cells: HEK 293T
T3 sequence (P29274 whole entry): as the sequence (P29274 whole entry) above
Description: Standard curve was prepared using Logit-Log Paper plot by drawing percent bound (B/Bo) versus concentration of cAMP for the standards. The concentration of the cAMP in the samples was determined by interpolation.

[2] = 10 mg/kg ip pre-treatment, mean±SEM, n=4

Ki (human A2AR) | A1/A2A (selectivity) (human A2AR) | Ki (human A1R) [nM] | SMILES | other results
54.8 nM | 0.042 | 2.32 | CCCn1c(/N=C/c2ccc(Cl)cc2)c(C#N)sc1=S [Compound 2g, (4E)4-(4-chlorobenzylideneamino)-3-propyl-2,3-dihydro-2-thioxothiazole-5-carbonitrile] | –
0.027 nM | 618.51 | 16.7 | CCCCn1c(N=Cc2ccc(F)cc2)c(C#N)sc1=S [Compound 2c, (4E)-4-flurobenzylideneamino)-3-butyl-2,3-dihydro-2-thioxothiazole-5-carbonitrile] | –
0.03 nM | 3393.3 | 102 | CCCn1c(/N=C/c2ccc(F)cc2)c(C#N)sc1=S [Compound 2b, (4E)4-(4-fluorobenzylideneamino)-3-propyl-2,3-dihydro-2-thioxothiazole-5-carbonitrile] | binding affinity and selectivity (in words) (human A2AR): both high binding affinity and selectivity
7.61 nM | 0.013 | 0.1 | CCCCn1c(/N=C/c2ccc(Br)cc2)c(C#N)sc1=S [Compound 2l, (4E)-4-(4-bromobenzylideneamino)-3-butyl-2,3-dihydro-2-thioxothiazole-5-carbonitrile] | –
9.6 nM | 2565 and 2565.62 | 24600 | CCCCn1c(/N=C/c2ccc(Cl)cc2)c(C#N)sc1=S [Compound 2h] | binding affinity and selectivity (in words) (human A2AR): both high binding affinity and selectivity
2.64 nM | 336.81 | 889 | N#Cc1sc(=S)n(CCc2ccccc2)c1N=Cc1ccc(F)cc1 [Compound 2d, (4E)-4-(4-flurobenzylideneamino)-3-phenylethyl-2,3-dihydro-2-thioxothiazole-5-carbonitrile] | –
– | – | – | Nc1nc2c(cnn2CCc2ccccc2)c2nc(-c3ccco3)nn12 [SCH58261, reference compound] | selectivity to A2AR (human A2AR; reference SCH58261): 483 fold; catalepsy score [1, 2]: 0.65±0.125; catalepsy score ([1]; 10 mg/kg ip pre-treatment, mean±SEM, n=4, listed as SCH 58261): 0.625±0.125; cAMP concentration (human A2A receptors): 0.55 pmol/mL
0.067 nM | 3.73 | 0.25 | N#Cc1sc(=S)n(CCc2ccccc2)c1/N=C/c1ccc(Br)cc1 [Compound 2m, (4E)4-(4-bromobenzylideneamino)-3-phenylethyl-2,3-dihydro-2-thioxothiazole-5-carbonitrile] | –
0.14 nM | 2947 and 2947.85 | 413 | N#Cc1sc(=S)n(-c2ccccc2)c1/N=C/c1ccc(Cl)cc1 [Compound 2i, (4E)4-(4-chlorobenzylideneamino)-3-phenyl-2,3-dihydro-2-thioxothiazole-5-carbonitrile] | binding affinity and selectivity (in words) (human A2AR): both high binding affinity and selectivity; melting point: 187 to 189 °C
– | 13.76 | – | CCn1c(/N=C/c2ccc(Cl)cc2)c(C#N)sc1=S [Compound 2f, (4E)-4-(4-chlorobenzylideneamino)-3-ethyl-2,3-dihydro-2-thioxothiazole-5-carbonitrile] | –
0.0047 nM | 0.13 | – | N#Cc1sc(=S)n(-c2ccccc2)c1/N=C/c1ccc(F)cc1 [Compound 2e, (4E)-4-(4-flurobenzylideneamino)-3-phenyl-2,3-dihydro-2-thioxothiazole-5-carbonitrile] | –
1.8 nM | 337.05 | 607 | CCCn1c(/N=C/c2ccc(Br)cc2)c(C#N)sc1=S [Compound 2k, (4E)4-(4-bromobenzylideneamino)-3-propyl-2,3-dihydro-2-thioxothiazole-5-carbonitrile] | –
0.01 nM | 0.074 | – | CCn1c(/N=C/c2ccc(Br)cc2)c(C#N)sc1=S [Compound 2j, (4E)-4-(4-Bromobenzylideneamino)-3-ethyl-2,3-dihydro-2-thioxothiazole-5-carbonitrile] | –
0.004 nM and 0.0042 nM | – | 186 | N#Cc1sc(=S)n(-c2ccccc2)c1/N=C/c1ccc(Br)cc1 [Compound 2n, (4E)4-(4-bromobenzylideneamino)-3-phenyl-2,3-dihydro-2-thioxothiazole-5-carbonitrile] | melting point: 185 to 187 °C; catalepsy score [1, 2]: 0.75±0.144; catalepsy score ([1]; pre-treatment at 5, 10, 15, 20 mg/kg): 0.75±0.140; catalepsy score, compound alone ([1]; without haloperidol, up to 120 minutes): zero
11 nM | 0.000053 | – | CCn1c(/N=C/c2ccc(F)cc2)c(C#N)sc1=S [Compound 2a, (4E)-4-(4-fluorobenzylideneamino)-3-ethyl-2,3-dihydro-2-thioxothiazole-5-carbonitrile] | –
